# Experiments:
# Type in all cases: in vivo
# [1] = tested on: Setaria faberi; experiment: greenhouse test, pre-emergence treatment; settings: scale from 0 to 100
# Description: (§1) The culture containers used were plastic flowerpots containing loamy sand with approximately 3.0% of humus as the substrate. The seeds of the test plants were sown separately for each species.
# (§2) For the pre-emergence treatment, the active ingredients, which had been suspended or emulsified in water, were applied directly after sowing by means of finely distributing nozzles. The containers were irrigated gently to promote germination and growth and subsequently covered with transparent plastic hoods until the plants had rooted. This cover caused uniform germination of the test plants, unless this had been impaired by the active ingredients. For the post-emergence treatment, the test plants were first grown to a height of 3 to 15 cm, depending on the plant habit, and only then treated with the active ingredients which had been suspended or emulsified in water. For this purpose, the test plants were either sown directly and grown in the same containers, or they were first grown separately as seedlings and transplanted into the test containers a few days prior to treatment.
# (§3) Depending on the species, the plants were kept at 10-25° C. or 20-35° C., respectively. The test period extended over 2 to 4 weeks. During this time, the plants were tended, and their response to the individual treatments was evaluated.
# (§4) Evaluation was carried out using a scale from 0 to 100. 100 means no emergence of the plants, or complete destruction of at least the aerial moieties, and 0 means no damage, or normal course of growth. A moderate herbicidal activity is given at values of at least 60, a good herbicidal activity is given at values of at least 70, and a very good herbicidal activity is given at values of at least 85.
# (§5) The plants used in the greenhouse experiments were of the following species: […]
# [2] = tested on: Abutilon theophrasti; experiment: greenhouse test, pre-emergence treatment; settings: scale from 0 to 100
# Description: as §1, §2, §3, §4, §5
# [3] = tested on: Amaranthus retroflexus; experiment: greenhouse test, pre-emergence treatment; settings: scale from 0 to 100
# Description: as §1, §2, §3, §4, §5
# [4] = tested on: Apera spica-venti; experiment: greenhouse test, pre-emergence treatment; settings: scale from 0 to 100
# Description: as §1, §2, §3, §4, §5
# [5] = tested on: Echinocloa crus-galli; experiment: greenhouse test, pre-emergence treatment; settings: scale from 0 to 100
# Description: as §1, §2, §3, §4, §5
# [6] = tested on: Setaria viridis; experiment: greenhouse test, pre-emergence treatment; settings: 125 g/ha, scale from 0 to 100
# Description: as §1, §2, §3, §4, §5
# [7] = tested on: Setaria viridis; experiment: greenhouse test, post-emergence treatment; settings: 1104 g/ha, scale from 0 to 100
# Description: as §1, §2, §3, §4, §5
compound,measurement,setting,value
CC1CCC(c2nc(N)nc(Nc3c(F)c(F)nc(F)c3F)n2)CC1 (centres unmarked) [Example 64],herbicidal activity,[1]; 250 g/ha,very good (a very good herbicidal activity is given at values of at least 85)
same,herbicidal activity,[2]; 250 g/ha,very good (a very good herbicidal activity is given at values of at least 85)
same,herbicidal activity,[3]; 250 g/ha,very good (a very good herbicidal activity is given at values of at least 85)
CC(C)(F)c1nc(N)nc(Nc2c(F)cncc2F)n1 [Example 54],herbicidal activity,[4]; 62 g/ha,very good (a very good herbicidal activity is given at values of at least 85)
same,herbicidal activity,[3]; 62 g/ha,very good (a very good herbicidal activity is given at values of at least 85)
Nc1nc(Nc2c(F)c(F)nc(F)c2F)nc(C2(F)CCCC2)n1 [Example 66],herbicidal activity,[1]; 250 g/ha,very good (a very good herbicidal activity is given at values of at least 85)
same,herbicidal activity,[2]; 250 g/ha,very good (a very good herbicidal activity is given at values of at least 85)
same,herbicidal activity,[3]; 250 g/ha,very good (a very good herbicidal activity is given at values of at least 85)
Cc1c(F)c(F)nc(Nc2nc(N)nc(C(C)(C)F)n2)c1F [Example 29],herbicidal activity,[1]; 125 g/ha,very good (a very good herbicidal activity is given at values of at least 85)
same,herbicidal activity,[2]; 125 g/ha,very good (a very good herbicidal activity is given at values of at least 85)
same,herbicidal activity,[3]; 125 g/ha,very good (a very good herbicidal activity is given at values of at least 85)
CCC(F)(CC)c1nc(N)nc(Nc2c(F)c(F)nc(F)c2F)n1 [Example 71],herbicidal activity,[1]; 250 g/ha,very good (a very good herbicidal activity is given at values of at least 85)
same,herbicidal activity,[2]; 250 g/ha,very good (a very good herbicidal activity is given at values of at least 85)
same,herbicidal activity,[3]; 250 g/ha,very good (a very good herbicidal activity is given at values of at least 85)
CC(C)(C#N)c1nc(N)nc(Nc2c(F)c(F)nc(F)c2F)n1 [Example 57],herbicidal activity,[2]; 250 g/ha,very good (a very good herbicidal activity is given at values of at least 85)
same,herbicidal activity,[3]; 250 g/ha,very good (a very good herbicidal activity is given at values of at least 85)
COC(C)(C)c1nc(N)nc(Nc2nc(F)c(F)c(Cl)c2F)n1 [Example 22],herbicidal activity,[3]; 250 g/ha,very good (a very good herbicidal activity is given at values of at least 85)
Nc1nc(Nc2c(F)c(F)nc(F)c2F)nc(C2(F)CCC2)n1 [Example 70],herbicidal activity,[4]; 1000 g/ha,good (a good herbicidal activity is given at values of at least 70)
same,herbicidal activity,[3]; 1000 g/ha,very good (a very good herbicidal activity is given at values of at least 85)
CCC(C)(F)c1nc(N)nc(Nc2nc(F)c(F)c(Cl)c2F)n1 (centres unmarked) [Example 13],herbicidal activity,[1]; 62.5 g/ha,very good (a very good herbicidal activity is given at values of at least 85)
same,herbicidal activity,[5]; 62.5 g/ha,very good (a very good herbicidal activity is given at values of at least 85)
same,herbicidal activity,[3]; 62.5 g/ha,very good (a very good herbicidal activity is given at values of at least 85)
COc1c(F)c(F)nc(Nc2nc(N)nc(C(C)(C)F)n2)c1F [Example 31],herbicidal activity,[1]; 250 g/ha,very good (a very good herbicidal activity is given at values of at least 85)
same,herbicidal activity,[2]; 250 g/ha,very good (a very good herbicidal activity is given at values of at least 85)
same,herbicidal activity,[3]; 250 g/ha,very good (a very good herbicidal activity is given at values of at least 85)
CCC(C)(F)c1nc(N)nc(Nc2c(F)c(F)nc(F)c2F)n1 (centres unmarked) [Example 52],herbicidal activity,[2]; 250 g/ha,very good (a very good herbicidal activity is given at values of at least 85)
same,herbicidal activity,[5]; 250 g/ha,very good (a very good herbicidal activity is given at values of at least 85)
same,herbicidal activity,[3]; 250 g/ha,very good (a very good herbicidal activity is given at values of at least 85)
Nc1nc(Nc2nc(F)c(F)c(Cl)c2F)nc(C2(Cl)CCCC2)n1 [Example 11],herbicidal activity,[1]; 500 g/ha,very good (a very good herbicidal activity is given at values of at least 85)
same,herbicidal activity,[2]; 500 g/ha,very good (a very good herbicidal activity is given at values of at least 85)
same,herbicidal activity,[3]; 500 g/ha,very good (a very good herbicidal activity is given at values of at least 85)
CCC(F)c1nc(N)nc(Nc2c(F)c(F)nc(F)c2F)n1 (centres unmarked) [Example 63],herbicidal activity,[1]; 125 g/ha,very good (a very good herbicidal activity is given at values of at least 85)
same,herbicidal activity,[2]; 125 g/ha,very good (a very good herbicidal activity is given at values of at least 85)
same,herbicidal activity,[3]; 125 g/ha,very good (a very good herbicidal activity is given at values of at least 85)
CC1(c2nc(N)nc(Nc3c(F)c(F)nc(F)c3F)n2)CCCCC1 [Example 68],herbicidal activity,[3]; 250 g/ha,very good (a very good herbicidal activity is given at values of at least 85)
Nc1nc(Nc2c(F)c(F)nc(F)c2F)nc(C(F)(F)F)n1 [Example 50],herbicidal activity,[4]; 500 g/ha,good (a good herbicidal activity is given at values of at least 70)
same,herbicidal activity,[3]; 500 g/ha,very good (a very good herbicidal activity is given at values of at least 85)
CC(C)(F)c1nc(N)nc(Nc2c(F)ccnc2F)n1 [Example 48],herbicidal activity,[3]; 125 g/ha,very good (a very good herbicidal activity is given at values of at least 85)
CC(C)(F)c1nc(N)nc(Nc2nc(F)c(F)c(Cl)c2F)n1 [Example 5],herbicidal activity,[5]; 125 g/ha,very good (a very good herbicidal activity is given at values of at least 85)
same,herbicidal activity,[3]; 125 g/ha,very good (a very good herbicidal activity is given at values of at least 85)
same,herbicidal activity,[6],very good (a very good herbicidal activity is given at values of at least 85)
COC(C)c1nc(N)nc(Nc2c(F)c(F)nc(F)c2F)n1 (centres unmarked) [Example 61],herbicidal activity,[2]; 500 g/ha,very good (a very good herbicidal activity is given at values of at least 85)
same,herbicidal activity,[3]; 500 g/ha,very good (a very good herbicidal activity is given at values of at least 85)
CCC(F)(CC)c1nc(N)nc(Nc2nc(F)c(F)c(Cl)c2F)n1 [Example 30],herbicidal activity,[1]; 250 g/ha,very good (a very good herbicidal activity is given at values of at least 85)
same,herbicidal activity,[5]; 250 g/ha,very good (a very good herbicidal activity is given at values of at least 85)
same,herbicidal activity,[3]; 250 g/ha,very good (a very good herbicidal activity is given at values of at least 85)
Nc1nc(Nc2nc(F)c(F)c(Cl)c2F)nc(C2CCCC2)n1 [Example 17],herbicidal activity,[3]; 250 g/ha,good (a good herbicidal activity is given at values of at least 70)
Nc1nc(Nc2nc(F)c(F)c(Cl)c2F)nc(C2(F)CCCC2)n1 [Example 12],herbicidal activity,[1]; 125 g/ha,very good (a very good herbicidal activity is given at values of at least 85)
same,herbicidal activity,[5]; 125 g/ha,very good (a very good herbicidal activity is given at values of at least 85)
same,herbicidal activity,[3]; 125 g/ha,very good (a very good herbicidal activity is given at values of at least 85)
Nc1nc(Nc2c(F)c(F)nc(F)c2F)nc(C2(Cl)CCCC2)n1 [Example 58],herbicidal activity,[1]; 250 g/ha,very good (a very good herbicidal activity is given at values of at least 85)
same,herbicidal activity,[5]; 250 g/ha,very good (a very good herbicidal activity is given at values of at least 85)
same,herbicidal activity,[3]; 250 g/ha,very good (a very good herbicidal activity is given at values of at least 85)
CC(C)(F)c1nc(N)nc(Nc2nc(F)c(F)c(OS(C)(=O)=O)c2F)n1 [Example 37],herbicidal activity,[4]; 250 g/ha,good (a good herbicidal activity is given at values of at least 70)
same,herbicidal activity,[3]; 250 g/ha,very good (a very good herbicidal activity is given at values of at least 85)
CCC(C)(F)c1nc(N)nc(Nc2nc(F)c(F)cc2F)n1 (racemic) [Example 14],herbicidal activity,[1]; 62.5 g/ha,very good (a very good herbicidal activity is given at values of at least 85)
same,herbicidal activity,[2]; 62.5 g/ha,very good (a very good herbicidal activity is given at values of at least 85)
same,herbicidal activity,[3]; 62.5 g/ha,very good (a very good herbicidal activity is given at values of at least 85)
CC(C)C(F)c1nc(N)nc(Nc2nc(F)c(F)c(Cl)c2F)n1 (centres unmarked) [Example 32],herbicidal activity,[1]; 125 g/ha,very good (a very good herbicidal activity is given at values of at least 85)
same,herbicidal activity,[5]; 125 g/ha,very good (a very good herbicidal activity is given at values of at least 85)
same,herbicidal activity,[3]; 125 g/ha,very good (a very good herbicidal activity is given at values of at least 85)
CCC(C)c1nc(N)nc(Nc2c(F)c(F)nc(F)c2F)n1 (centres unmarked) [Example 69],herbicidal activity,[2]; 125 g/ha,very good (a very good herbicidal activity is given at values of at least 85)
same,herbicidal activity,[3]; 125 g/ha,very good (a very good herbicidal activity is given at values of at least 85)
CC1(c2nc(N)nc(Nc3c(F)c(F)nc(F)c3F)n2)CCCC1 [Example 67],herbicidal activity,[3]; 250 g/ha,very good (a very good herbicidal activity is given at values of at least 85)
CC(C)(C)c1nc(N)nc(Nc2c(F)c(F)nc(F)c2F)n1 [Example 62],herbicidal activity,[1]; 250 g/ha,very good (a very good herbicidal activity is given at values of at least 85)
same,herbicidal activity,[2]; 250 g/ha,very good (a very good herbicidal activity is given at values of at least 85)
same,herbicidal activity,[3]; 250 g/ha,very good (a very good herbicidal activity is given at values of at least 85)
CC(C)Oc1cccnc1Nc1nc(N)nc(C(F)(F)F)n1 [Example 36],herbicidal activity,[7],very good (a very good herbicidal activity is given at values of at least 85)

# Source: US10479777B2, “Herbicidal azines” (BASF SE, priority 2013, dated 2019)
